Laboratory results reported in US9956181B2, “Composition of nanoformulated lycopene and method of using the composition” (priority 2015, dated 2018).

What was measured:
[1] = system: ovariectomized (OVX) rats; assay: OVX rat study: dynamic bone histomorphometry of tibial metaphysis and diaphysis; format: in vivo, Wistar rats
Protocol: (§1) A total of 264 Wistar female rats, ˜6 months old, were supplied by the Animal House at King Fahd Medical Research Center (KFMRC), KAU. Rats were housed in individual cages and maintained at 22° C. with a 12-h light/dark cycle. During the study period, rats were given standard rodent chow diet ad libitum (commercial rat cubes containing approximately 18% protein, 3% fat, 77% carbohydrate, and 2% of an inorganic-salt mixture with a vitamin supplement by weight, supplied by Grain Silos and Flour Mills Organization, Jeddah, Saudi Arabia) and water until the onset of intervention. Prior to surgery, rats were anesthetized with ketamine [(10% ketamine hydrochloride (80 mg/kg body weight), Cayman Chemical, Michigan, USA] and xylazine [(2% xylazine hydrochloride, 10 mg/kg body weight), Sigma-Aldrich Co., St. Louis, USA]. A single longitudinal skin incision was made on the dorsal midline at the level of the kidneys and both ovaries were ligated and removed to produce an ovariectomy in all OVX group animals. A SHAM-operated group, acting as a negative control for the effect of ovariectomy on bone parameters, underwent bilateral laparotomy, during which the ovaries were exposed but remained intact. […] The lycopene-supplemented groups were given lycopene (15, 30 and 45 mg/kg body weight per day) dissolved in corn oil by daily intra-gastric administration for the experimental period of 12 weeks. The SHAM, OVX and ALN control groups were given the same volume of corn oil without lycopene treatment. […] A 12-week randomized placebo-controlled study in order to examine the protective effects of lycopene supplementation on bone mass and fragility in OVX rats was concluded. Prior to surgery, body weight and bone mineral density (BMD) were obtained for all animals. Rats were randomized using a computer-generated randomization code into one of six groups: (1) sham-operated (SHAM; n=44); (2) ovariectomized control (OVX; n=44); (3) OVX lycopene-supplemented (15 mg/kg body weight per day) (n=44); (4) OVX lycopene-supplemented (30 mg/kg body weight per day) (n=44); (5) OVX lycopene-supplemented (45 mg/kg body weight per day) (n=44) and (6) OVX alendronate-treated (ALN) [2.0 μg/kg body weight per day subcutaneously (sc)] (n=44). Alendronate is an anti-resorptive agent for the treatment of osteoporosis and was used as a positive therapy control. […] All OVX groups were pair-fed with the SHAM group throughout the study to avoid the possible effects of ovariectomy-induced over-consumption and subsequent excessive weight gain. Treatment started 1 week after the surgery: this period of rest allowed the rats to recover from the stress associated with the surgery. In addition, after surgery, rats were administered Diclofenac sodium injection (20 mg/Kg body weight) to reduce the pain associated with the surgery. Rats were weighed and examined daily. Blood and urine samples were collected at baseline, during, and at the end of treatment for measurement of various BTMs and other analytes. In vivo dual energy x-ray absorptiometry (DXA) measurements were made for the bone mineral content (BMC) and BMD of the whole body, lumbar spine (L1-L4), and the right humerus, together with body composition at 12 weeks of treatment. One day following the post-test DXA assessments (at 12 weeks, 16 rats in each group), animals were euthanized by decapitation and right and left femurs were extracted for further biomechanical and histomorphometric analyses. Blood and urine samples were collected from all experimental groups to measure biochemical analytes and BTMs at baseline and 4, 8, and 12 weeks of treatment. Peripheral Quantitative CT (pQCT) scans were made of the proximal tibia metaphysis and the diaphysis. In vivo micro-computed tomographic (μCT) scans of the proximal tibia were obtained during the treatment period to monitor changes in bone mass and microarchitecture. […]

[2] = system: ovariectomized (OVX) rats; assay: OVX rat study: plasma GPx, SOD, CAT activities and urinary 8-OHdG; format: in vivo, Wistar rats
Protocol: Prior to surgery, rats were anesthetized with ketamine [(10% ketamine hydrochloride (80 mg/kg body weight), Cayman Chemical, Michigan, USA] and xylazine [(2% xylazine hydrochloride, 10 mg/kg body weight), Sigma-Aldrich Co., St. Louis, USA]. A single longitudinal skin incision was made on the dorsal midline at the level of the kidneys and both ovaries were ligated and removed to produce an ovariectomy in all OVX group animals. A SHAM-operated group, acting as a negative control for the effect of ovariectomy on bone parameters, underwent bilateral laparotomy, during which the ovaries were exposed but remained intact. […] The lycopene-supplemented groups were given lycopene (15, 30 and 45 mg/kg body weight per day) dissolved in corn oil by daily intra-gastric administration for the experimental period of 12 weeks. The SHAM, OVX and ALN control groups were given the same volume of corn oil without lycopene treatment. […] Prior to surgery, body weight and bone mineral density (BMD) were obtained for all animals. […] Alendronate is an anti-resorptive agent for the treatment of osteoporosis and was used as a positive therapy control. […] All OVX groups were pair-fed with the SHAM group throughout the study to avoid the possible effects of ovariectomy-induced over-consumption and subsequent excessive weight gain. Treatment started 1 week after the surgery: this period of rest allowed the rats to recover from the stress associated with the surgery. In addition, after surgery, rats were administered Diclofenac sodium injection (20 mg/Kg body weight) to reduce the pain associated with the surgery. Rats were weighed and examined daily. Blood and urine samples were collected at baseline, during, and at the end of treatment for measurement of various BTMs and other analytes. […] Blood and urine samples were collected from all experimental groups to measure biochemical analytes and BTMs at baseline and 4, 8, and 12 weeks of treatment.

[3] = system: ovariectomized (OVX) rats; assay: OVX rat study: ex vivo μCT analysis of tibial metaphysis and femur diaphysis; format: in vivo, Wistar rats
Protocol: as §1

[4] = system: ovariectomized (OVX) rats; assay: OVX rat study: ex vivo pQCT and biomechanical testing of lumbar spine and femur; format: in vivo, Wistar rats; details: 12 weeks
Protocol: as §1, with “One day following the post-test DXA assessments (at 12 weeks, 16 rats in each group), animals were euthanized by decapitation and right and left femurs were extracted for further biomechanical and histomorphometric analyses. Blood and urine samples were collected from all experimental groups to measure biochemical analytes and BTMs at baseline and 4, 8, and 12 weeks of treatment.” left out, “diaphysis.” for “diaphysis. In vivo micro-computed tomographic (μCT) scans of the proximal tibia were obtained during the treatment period to monitor changes in bone mass and microarchitecture.”

[5] = system: ovariectomized (OVX) rats; assay: OVX rat study: body weight, uterine weight, body composition by DXA, organ findings; format: in vivo, Wistar rats; details: 12 weeks; for decrease in fat mass (body composition by DXA): higher dosages of lycopene
Protocol: as §1

[6] = system: ovariectomized (OVX) rats; assay: OVX rat study: serum minerals, enzymes and hormones; format: in vivo, Wistar rats
Protocol: as §1, with “In addition, after surgery, rats were administered Diclofenac sodium injection (20 mg/Kg body weight) to reduce the pain associated with the surgery. Rats were weighed and examined daily. Blood and urine samples were collected at baseline, during, and at the end of treatment for measurement of various BTMs and other analytes. In vivo dual energy x-ray absorptiometry (DXA) measurements were made for the bone mineral content (BMC) and BMD of the whole body, lumbar spine (L1-L4), and the right humerus, together with body composition at 12 weeks of treatment. One day following the post-test DXA assessments (at 12 weeks, 16 rats in each group), animals were euthanized by decapitation and right and left femurs were extracted for further biomechanical and histomorphometric analyses. Blood and urine samples were collected from all experimental groups to measure biochemical analytes and BTMs at baseline and 4, 8, and 12 weeks of treatment.” left out, “diaphysis.” for “diaphysis. In vivo micro-computed tomographic (μCT) scans of the proximal tibia were obtained during the treatment period to monitor changes in bone mass and microarchitecture.”

[7] = OVX rat study: serum and liver lycopene by HPLC; format: in vivo, Wistar rats
Protocol: A total of 264 Wistar female rats, ˜6 months old, were supplied by the Animal House at King Fahd Medical Research Center (KFMRC), KAU. Rats were housed in individual cages and maintained at 22° C. with a 12-h light/dark cycle. During the study period, rats were given standard rodent chow diet ad libitum (commercial rat cubes containing approximately 18% protein, 3% fat, 77% carbohydrate, and 2% of an inorganic-salt mixture with a vitamin supplement by weight, supplied by Grain Silos and Flour Mills Organization, Jeddah, Saudi Arabia) and water until the onset of intervention. Prior to surgery, rats were anesthetized with ketamine [(10% ketamine hydrochloride (80 mg/kg body weight), Cayman Chemical, Michigan, USA] and xylazine [(2% xylazine hydrochloride, 10 mg/kg body weight), Sigma-Aldrich Co., St. Louis, USA]. A single longitudinal skin incision was made on the dorsal midline at the level of the kidneys and both ovaries were ligated and removed to produce an ovariectomy in all OVX group animals. A SHAM-operated group, acting as a negative control for the effect of ovariectomy on bone parameters, underwent bilateral laparotomy, during which the ovaries were exposed but remained intact. […] The lycopene-supplemented groups were given lycopene (15, 30 and 45 mg/kg body weight per day) dissolved in corn oil by daily intra-gastric administration for the experimental period of 12 weeks. The SHAM, OVX and ALN control groups were given the same volume of corn oil without lycopene treatment. […] A 12-week randomized placebo-controlled study in order to examine the protective effects of lycopene supplementation on bone mass and fragility in OVX rats was concluded. Prior to surgery, body weight and bone mineral density (BMD) were obtained for all animals. […] Peripheral Quantitative CT (pQCT) scans were made of the proximal tibia metaphysis and the diaphysis. […]

[8] = system: ovariectomized (OVX) rats; assay: OVX rat study: biochemical bone turnover markers; format: in vivo, Wistar rats
Protocol: as §1, with “In addition, after surgery, rats were administered Diclofenac sodium injection (20 mg/Kg body weight) to reduce the pain associated with the surgery. Rats were weighed and examined daily. Blood and urine samples were collected at baseline, during, and at the end of treatment for measurement of various BTMs and other analytes. In vivo dual energy x-ray absorptiometry (DXA) measurements were made for the bone mineral content (BMC) and BMD of the whole body, lumbar spine (L1-L4), and the right humerus, together with body composition at 12 weeks of treatment. One day following the post-test DXA assessments (at 12 weeks, 16 rats in each group), animals were euthanized by decapitation and right and left femurs were extracted for further biomechanical and histomorphometric analyses. Blood and urine samples were collected from all experimental groups to measure biochemical analytes and BTMs at baseline and 4, 8, and 12 weeks of treatment.” left out, “diaphysis.” for “diaphysis. In vivo micro-computed tomographic (μCT) scans of the proximal tibia were obtained during the treatment period to monitor changes in bone mass and microarchitecture.”

[9] = system: ovariectomized (OVX) rats; assay: OVX rat study: in vivo DXA densitometry of lumbar spine and humerus; set-up: species or system Wistar rats; details: 12 weeks, versus OVX control
Protocol: A total of 264 Wistar female rats, ˜6 months old, were supplied by the Animal House at King Fahd Medical Research Center (KFMRC), KAU. Rats were housed in individual cages and maintained at 22° C. with a 12-h light/dark cycle. During the study period, rats were given standard rodent chow diet ad libitum (commercial rat cubes containing approximately 18% protein, 3% fat, 77% carbohydrate, and 2% of an inorganic-salt mixture with a vitamin supplement by weight, supplied by Grain Silos and Flour Mills Organization, Jeddah, Saudi Arabia) and water until the onset of intervention. Prior to surgery, rats were anesthetized with ketamine [(10% ketamine hydrochloride (80 mg/kg body weight), Cayman Chemical, Michigan, USA] and xylazine [(2% xylazine hydrochloride, 10 mg/kg body weight), Sigma-Aldrich Co., St. Louis, USA]. A single longitudinal skin incision was made on the dorsal midline at the level of the kidneys and both ovaries were ligated and removed to produce an ovariectomy in all OVX group animals. A SHAM-operated group, acting as a negative control for the effect of ovariectomy on bone parameters, underwent bilateral laparotomy, during which the ovaries were exposed but remained intact. […] Peripheral Quantitative CT (pQCT) scans were made of the proximal tibia metaphysis and the diaphysis. […]

[10] = lycopene 15-45 mg/kg/day, 12 weeks, range over doses
[11] = 12 weeks, lycopene, ALN 2.0 μg/kg/day, P<0.001

SMILES: CC(C)=CCC/C(C)=C/C=C/C(C)=C/C=C/C(C)=C/C=C/C=C(C)/C=C/C=C(C)/C=C/C=C(\C)CCC=C(C)C [lycopene]
- osteoclast surface (Oc.S/BS) and osteoclast number (N.Oc/BS) ([1]; OVX rats, lycopene, P<0.001): significant decreases
- bone formation parameters (Ob.S/BS, MS/BS, BFR/BS, BFR/BV) ([1]; OVX rats, lycopene, tibial metaphysis): prevented OVX-induced increases
- increase in BV/TV, tibial metaphysis (histomorphometry), compared with OVX control [1, 10]: 27.1-92.2%
- increase in Tb.N, tibial metaphysis (histomorphometry), compared with OVX control [1, 10]: 9.2-72.9%
- OVX-related increases in endocortical bone turnover formation (Ec.L.Pm/Ec.Pm, Ec MAR, Ec.BFR/BS) ([1]; lycopene greater than 15 mg/kg body weight per day, tibial diaphysis): completely prevented
- bone dynamics on the periosteal surface ([1]; lycopene, except at 45 mg/kg body weight per day): positively affected
- plasma GPx, CAT and SOD activities ([2]; after lycopene treatment): increased
- increase in plasma GPx activity compared to the OVX control ([2]; lycopene 15-45 mg/kg/day, P<0.001): 30.6-57.2%
- urinary 8-OHdG levels ([2]; lycopene, dose-dependent manner, P<0.001): significantly decreased
- decrease in Tb.Sp, tibia metaphysis (μCT), compared with OVX group [3, 11]: 46.8%
- increase in BV/TV, tibia metaphysis (μCT), compared with OVX group [3, 11]: 123.9%
- increase in Tb.N, tibia metaphysis (μCT), compared with OVX group [3, 11]: 52.8%
- increase in Tb.Th, tibia metaphysis (μCT), compared with OVX group ([3]; 12 weeks, lycopene, P<0.001): 78.4%
- relative bone volume (BV/TV) of the femur diaphysis (μCT) ([3]; OVX rats, 12 weeks): nor lycopene or ALN treatment had significant effects
- femoral cortical values for Ct.Th and Ct.Po (μCT) ([3]; lycopene 30 and 45 mg/kg/day, ALN, versus SHAM and OVX groups): improved
- OVX-induced decrease in cortical thickness ([4]; lycopene particularly 45 mg/kg/day, alendronate 2.0 μg/kg/day): prevented the decrease
- lumbar spine biomechanical / bone strength parameters ([4]; lycopene particularly 30 and 45 mg/kg/day, ALN 2.0 μg/kg/day, P<0.05): improved
- effects of OVX on bone strength parameters in the femur diaphysis ([4]; lycopene, values comparable to SHAM): prevented the negative effects
- decrease in fat mass (body composition by DXA) ([5]; OVX rats, first value (presumably 30 mg/kg/day)): 8.9%
- decrease in fat mass (body composition by DXA) ([5]; OVX rats, second value (presumably 45 mg/kg/day)): 16.4%
- final body weight, body weight gain, or food intake ([5]; OVX rats, lycopene 15, 30, 45 mg/kg/day oral): did not significantly influence
- uterine weight compared to OVX alone ([5]; OVX rats, lycopene 30 and 45 mg/kg body weight per day): significantly increased
- OVX-induced body weight gain and fat accumulation ([5]; OVX rats, lycopene treatment): prevented
- degeneration or hypertrophy of internal organs, including muscle and bone ([5]; lycopene-treated OVX rats): No degeneration or hypertrophy
- serum E2 ([6]; OVX lycopene-treated groups, dose-dependent, P<0.001): significantly increased
- elevated serum FSH and LH levels ([6]; OVX rats, lycopene treatment): attenuated
- serum PTH values versus other groups ([6]; OVX rats, lycopene 45 mg/kg/day, ALN 2.0 μg/kg/day sc, P<0.001): significantly higher
- Liver lycopene levels versus 15 mg/kg per day group ([7]; 30 and 45 mg/kg body weight per day groups): significantly higher
- concentration at 12 weeks ([7]; female, Wistar, rat, serum, 45 mg/kg/day, OVX rats, at 12 weeks, 45 mg/kg body weight per day oral, read-out: Serum lycopene levels): 71.5 ± 4.65 nM
- lycopene in serum and livers ([7]; rats treated with lycopene, dose-dependent fashion): detected
- s-CTX and u-DPD levels compared to OVX control ([8]; lycopene 30 and 45 mg/kg per day, P<0.001): significantly decreased
- s-OC and s-PINP levels compared with OVX control ([8]; lycopene 30 or 45 mg/kg per day, weeks 8 and 12, P<0.001): significant decreases
- OVX-induced bone loss (BMC and BMD, lumbar spine and humerus, DXA) [9]: significantly prevented
